Assay results taken from ChEMBL document CHEMBL1143153, “BACE-1 inhibitors part 1: identification of novel hydroxy ethylamines (HEAs)” (Bioorg Med Chem Lett, 2008).

Key:
[1] = target: T1, Beta-secretase 1 (Homo sapiens, UniProt P56817); test: Inhibition of BACE1
[2] = target: T2, Beta-secretase 2 (Homo sapiens, UniProt Q9Y5Z0); test: Inhibition of BACE2
T2 sequence (Q9Y5Z0 whole entry): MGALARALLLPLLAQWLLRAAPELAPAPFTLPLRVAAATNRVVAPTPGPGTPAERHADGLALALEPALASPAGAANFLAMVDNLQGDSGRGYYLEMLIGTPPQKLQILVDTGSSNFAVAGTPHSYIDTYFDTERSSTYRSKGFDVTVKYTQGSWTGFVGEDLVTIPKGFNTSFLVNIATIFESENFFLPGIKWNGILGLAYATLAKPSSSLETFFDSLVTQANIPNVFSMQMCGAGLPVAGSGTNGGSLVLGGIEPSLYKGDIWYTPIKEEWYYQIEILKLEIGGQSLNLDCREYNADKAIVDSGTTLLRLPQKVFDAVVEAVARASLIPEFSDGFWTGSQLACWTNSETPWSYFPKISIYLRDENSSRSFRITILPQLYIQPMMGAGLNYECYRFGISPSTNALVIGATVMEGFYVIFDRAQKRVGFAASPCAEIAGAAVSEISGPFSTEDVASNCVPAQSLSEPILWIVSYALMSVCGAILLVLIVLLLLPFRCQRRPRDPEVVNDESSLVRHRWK

[3] = target: Cathepsin D (Homo sapiens, UniProt P07339); test: Inhibition of cathepsin D
[4] = target: T1, Beta-secretase 1; test: Inhibition of BACE1 expressed in SHSY5Y cells assessed as reduction of amyloid beta 40 production; assay type: cell-based, SH-SY5Y
[5] = target: T1, Beta-secretase 1; assay type: cell-based, SH-SY5Y

T1 sequence (P56817 whole entry): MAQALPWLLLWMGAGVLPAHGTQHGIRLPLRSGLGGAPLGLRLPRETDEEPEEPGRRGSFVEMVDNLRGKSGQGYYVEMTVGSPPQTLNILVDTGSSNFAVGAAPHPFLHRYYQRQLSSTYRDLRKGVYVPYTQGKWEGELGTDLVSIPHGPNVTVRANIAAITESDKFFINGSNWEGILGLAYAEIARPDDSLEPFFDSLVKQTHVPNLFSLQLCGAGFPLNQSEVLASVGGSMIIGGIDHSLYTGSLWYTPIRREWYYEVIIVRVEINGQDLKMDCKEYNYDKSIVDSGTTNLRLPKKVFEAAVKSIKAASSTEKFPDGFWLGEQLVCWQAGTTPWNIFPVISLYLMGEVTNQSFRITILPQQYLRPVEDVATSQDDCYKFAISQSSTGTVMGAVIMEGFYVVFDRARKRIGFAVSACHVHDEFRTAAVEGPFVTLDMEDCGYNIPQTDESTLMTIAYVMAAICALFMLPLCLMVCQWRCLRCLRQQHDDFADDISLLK
Sequence of Cathepsin D (P07339 65-162 limits assumed): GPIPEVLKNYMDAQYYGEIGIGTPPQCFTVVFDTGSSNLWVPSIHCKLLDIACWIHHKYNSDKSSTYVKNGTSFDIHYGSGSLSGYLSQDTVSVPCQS
Sequence of Cathepsin D (P07339 169-412 limits assumed): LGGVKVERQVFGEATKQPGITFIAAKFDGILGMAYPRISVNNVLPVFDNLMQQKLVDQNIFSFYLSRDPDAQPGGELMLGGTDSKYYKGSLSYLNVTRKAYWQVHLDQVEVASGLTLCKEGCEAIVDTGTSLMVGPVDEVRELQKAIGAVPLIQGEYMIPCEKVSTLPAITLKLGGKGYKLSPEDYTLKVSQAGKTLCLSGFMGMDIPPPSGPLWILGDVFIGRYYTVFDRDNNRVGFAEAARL

IC50 [1] [nM]	IC50 [2] [nM]	IC50 [3] [nM]	IC50 [4] [nM]	IC50 [5] [nM]	Structure (SMILES)
39	830	5410	330	280	CC(C)Nc1cc(C(=O)N[C@@H](Cc2ccccc2)[C@H](O)CN[C@@H](C)C(=O)NC2CCCCC2)cc(N2CCCC2=O)c1
180	650	3090			CC(C)CNc1cc(C(=O)N[C@@H](Cc2ccccc2)[C@H](O)CN[C@@H](C)C(=O)NC2CCCCC2)cc(N2CCCC2=O)c1
120	4790	12300	1130	1180	CC(C)Oc1cc(C(=O)N[C@@H](Cc2ccccc2)[C@H](O)CN[C@@H](C)C(=O)NC2CCCCC2)cc(N2CCCC2=O)c1
> 500000					CC(C)C[C@H](NC(=O)c1cccc(S(C)(=O)=O)c1)[C@H](O)CN[C@@H](C)C(=O)NC1CCCCC1
32	400	430			CCCCCOc1cc(C(=O)N[C@@H](Cc2ccccc2)[C@H](O)CN[C@@H](C)C(=O)NC2CCCCC2)cc(N2CCCC2=O)c1
> 500000					C[C@H](NC[C@H](O)[C@H](Cc1ccccc1)NC(=O)c1cccc(S(C)(=O)=O)c1)C(=O)NC1CCCCC1
72	1580	4570	990	690	CCCc1cc(C(=O)N[C@@H](Cc2ccccc2)[C@H](O)CN[C@@H](C)C(=O)NC2CCCCC2)cc(N2CCCC2=O)c1
59	5130	7940	970	1420	CCOc1cc(C(=O)N[C@@H](Cc2ccccc2)[C@H](O)CN[C@@H](C)C(=O)NC2CCCCC2)cc(N2CCCC2=O)c1
745	28600	30000			COc1cc(C(=O)N[C@@H](Cc2ccccc2)[C@H](O)CN[C@@H](C)C(=O)NC2CCCCC2)cc(N2CCCC2=O)c1
62000	> 100000	> 100000			CC(=O)Nc1ccc(C(=O)N[C@@H](Cc2ccccc2)[C@H](O)CN[C@@H](C)C(=O)NC2CCCCC2)cc1
1900	> 21000	10000			C[C@H](NC[C@@H](O)[C@H](Cc1ccccc1)NC(=O)c1cccc(N2CCCS2(=O)=O)c1)C(=O)NC1CCCCC1
	8240	47100	1690	1380	CCCOc1cc(C(=O)N[C@@H](Cc2ccccc2)[C@H](O)CN[C@@H](C)C(=O)NC2CCCCC2)cc(N2CCCC2=O)c1
	3600	600			CCCCCS(=O)(=O)c1cccc(C(=O)N[C@@H](Cc2ccccc2)[C@H](O)CN[C@@H](C)C(=O)NC2CCCCC2)c1
> 500000					C[C@@H](C(=O)NC1CCCCC1)N(C)C[C@@H](O)[C@H](Cc1ccccc1)NC(=O)c1cccc(S(C)(=O)=O)c1
1450	12900	6170			CCOc1cc(C(=O)N[C@@H](Cc2ccccc2)[C@H](O)CN[C@@H](C)C(=O)NC2CCCCC2)cc(N2CCCC2)c1

Structure (SMILES)	IC50 [1] [nM]	IC50 [2] [nM]	IC50 [3] [nM]	IC50 [4] [nM]	IC50 [5] [nM]
C[C@H](NC[C@@H](O)[C@H](Cc1ccccc1)NC(=O)c1cc(N2CCCC2)cc(N2CCCC2=O)c1)C(=O)NC1CCCCC1	860	8790	9280		
